Measured values taken from patent US20100272736A1, “COMBINATION ANTIBIOTIC AND ANTIBODY THERAPY FOR THE TREATMENT OF PSEUDOMONAS AERUGINOSA INFECTION” (priority 2009, published 2010).

Columns and labels:
[1] = tested on: P. aeruginosa PA103; assay: Acute murine airway infection model: survival and body temperature (Mab166 iv, antibiotic ip); type: in vivo, mice; details: for survival rate over a 7 day period: antibiotic alone ip Q8H (ciprofloxacin 100 mg/kg, tobramycin 3.3 mg/kg, ceftazidime 1000 mg/kg); for survival (piperacillin experiment): piperacillin/tazobactam 1000 mg/kg ip Q8H, Mab166 300 μg iv, FIG. 7
Description: Bacterial administration and lung injury measurement in mice. Following anesthesia with avertin (250 mg kg^−1; ip), mice were inoculated with a volume of fifty μl of bacterial working stock (1.5×10^6 CFU), which was instilled into the left lung through the trachea using a 27G gavages needle. Mice were allowed to recover for 15 minutes prior to being returned to their cages. […] Rectal temperature was recorded hourly for the initial 12 hours post bacterial instillation followed by daily measurements for 7 days. Survival time was recorded for each mouse.
Antibiotics and PcrV antibody administration. […] All antibiotics were administrated intraperitoneally 1 hour after P. aeruginosa instillation. Four doses of each antibiotic were tested in mice to determine the dose needed to produce sub-optimal survival rates (40-60%) in mice infected with 1.5×10^6 PA103 CFU, which is a 3× lethal amount of bacteria.
Statistics. Kaplan-Meier plots were generated for survival analysis and ANOVA was used to compare lung injury score, bacterial CFU's and MPO activity in various treatment groups at specific time points; P 0.05 was considered significant.
(§1) The acutely infectious strain P. aeruginosa PA103 was used for this study.
Anti-PcrV antibody was intravenously injected one hour before P. aeruginosa instillation. Mice were then anesthetized with avertin (250 mg/kg), prior to instillation of 1.5×10^6 CFU PA103 into the trachea. Intraperitoneal piperacillin (1000 mg/kg, Q8H) injection commenced one hour after P. aeruginosa instillation and repeated until mice expired. Piperacillin was administered in combination with tazobactam (a pencillinase inhibitor), which is the standard practice for administration. In this example, “piperacillin” refers to piperacillin in combination with tazobactam.

[2] = tested on: PA103; assay: PA103 antibiotic sensitivity (MicroScan Neg Combo plates, CLSI guidelines); type: cell-based, P. aeruginosa; details: conventional antibiotic resistance testing, CLSI interpretation
Excerpt: PA103 antibiotic sensitivity Dade Behring MicroScan Neg Combo plates were used to determine the antibiotic sensitivity of PA103 by conventional antibiotic sensitivity testing according to the manufacturers instructions.
as §1

[3] = tested on: P. aeruginosa PA103; assay: Bacterial enumeration (CFU) in lungs, blood and spleen; type: in vivo, mice
Description: Bacterial enumeration. Lungs were removed aseptically from the thoracic cavity, placed in 1 ml of sterile PBS and homogenized. Spleens were aseptically removed and homogenized in 1 ml of PBS and blood was drawn from right ventricle puncture. All samples were serially diluted in sterile PBS and plated on P. aeruginosa isolation agar prior to overnight incubation at 37° C. Plates with cell counts between 30 and 300 were enumerated and mean CFU ml^−1 of triplicate counts was calculated for each sample.
These samples were analyzed for bacterial CFU's as described in materials and methods.

| Compound | survival rate over a 7 day period [1] [%] | antibiotic susceptibility of PA103 [2] | survival (piperacillin experiment) [1] | survival (piperacillin experiment) ([1]; listed as Piperacillin) | P. aeruginosa CFU's in the blood ([3]; 8 and 24 hours post infection) | total CFU's in the lungs ([3]; 8 and 24 hours post infection, compared to control mice) | bacterial CFU's in the spleen ([3]; 24 hours vs 8 hours post infection) |
| --- | --- | --- | --- | --- | --- | --- | --- |
| CC(C)(O/N=C(\C(=O)N[C@@H]1C(=O)N2C(C(=O)[O-])=C(C[n+]3ccccc3)CS[C@H]12)c1csc(N)n1)C(=O)O [ceftazidime] | 40 | susceptible | – | – | – | – | – |
| CCN1CCN(C(=O)N[C@@H](C(=O)N[C@@H]2C(=O)N3[C@@H]2SC(C)(C)[C@@H]3C(=O)O)c2ccccc2)C(=O)C1=O [piperacillin] | – | – | increased survival minimally | slight increase in animal survival | – | – | – |
| NC[C@H]1O[C@H](O[C@H]2[C@H](O)[C@@H](O[C@H]3O[C@H](CO)[C@@H](O)[C@H](N)[C@H]3O)[C@H](N)C[C@@H]2N)[C@H](N)C[C@@H]1O [tobramycin] | 60 | susceptible | – | – | significant (P=0.01, P=0.0046 respectively) increases | significantly lower | increased significantly |
